{
  "source": "paper PMC2852246",
  "about": "(Journal of nuclear medicine : official publication, Society …, 2010)",
  "key": {"[1]": {"conditions": "single dose of 10 mg, eight human volunteers; cited from earlier work"}, "[2]": {"conditions": "determined by Health Canada; cited from earlier work"}, "[3]": {"conditions": "cited from earlier work"}, "[4]": {"conditions": "cited from earlier work", "remark": "listed apart in the source"}, "[5]": {"conditions": "earlier study of 106 subjects referred for potential kidney donation; cited from earlier work"}, "[6]": {"conditions": "106 subjects referred for potential kidney donation; cited from earlier work"}, "[7]": {"assay": "Percentage injected dose in the urine of healthy volunteers", "format": "in vivo, human"}, "[8]": {"assay": "Renal imaging and renogram parameters", "format": "in vivo, human"}, "[9]": {"assay": "Percentage uptake in erythrocytes", "format": "in vitro ADME, human", "conditions": "healthy volunteers, no correction for trapped plasma, mean ± SD"}, "[10]": {"assay": "Plasma protein binding by ultracentrifugation", "format": "in vitro ADME, human", "conditions": "healthy volunteers, mean ± SD"}, "[11]": {"conditions": "cortical (parenchymal) region of interest, left kidney, n = 9"}, "[12]": {"conditions": "cortical (parenchymal) region of interest, right kidney, n = 9"}, "[13]": {"conditions": "whole-kidney region of interest, relative uptake, n = 9, mean (SD)"}},
  "note": "Values joined by “and” are separate entries in the source; they are usually repeats but may differ in a detail not shown here. Equal entries are not always repeated. Where two headings read alike, the source gives them in different places.",
  "data": [
    {"smiles": "O=C(O)CN(CC(=O)O)CC(=O)O", "note": "[NTA, Nitrilotriacetic acid]", "values": [
      {"measurement": "adverse effects after ingestion", "setting": "[1]", "result": "No adverse effects"},
      {"measurement": "acceptable daily intake in drinking water", "setting": "[2]", "result": "10 μg/kg of body weight per day"}
    ]},
    {"smiles": "O=C([O-])CN(CCN(CC(=O)[O-])CC(=O)[O-])CCN(CC(=O)[O-])CC(=O)[O-].[99Tc+4]", "note": "[^99mTc-DTPA, ^99mTc-diethyltriaminepentaacetic acid]", "values": [
      {"measurement": "extraction fraction", "setting": "[3]", "result": 20, "unit": "%"}
    ]},
    {"smiles": "O=C([O-])CN=C([O-])CN=C([O-])CN=C([O-])C[S-].[O-2].[Tc+4]", "note": "[^99mTc-MAG3, ^99mTc-mercaptoacetyltriglycine]", "values": [
      {"measurement": "extraction fraction", "setting": "[3]", "result": "40%-60%"},
      {"measurement": "clearance as percentage of the clearance of 131I-OIH", "setting": "[4]", "result": "50%-60%"},
      {"measurement": "plasma clearance as percentage of the 131I-OIH clearance", "setting": "[4]; multiple studies", "result": "50–60%"},
      {"measurement": "cortical 20 min/max", "setting": "[5]", "result": 0.19},
      {"measurement": "camera-based clearance", "setting": "[6]", "result": "321 ± 69", "unit": "mL/min/1.73 m^2"}
    ]},
    {"smiles": "O=C(O)CNC(=O)c1ccccc1[131I]", "note": "[^131I-OIH, ^131I ortho-iodohippuran]", "values": [
      {"measurement": "percent injected dose in the urine at 30 min", "setting": "[7]; 30 min after injection", "result": "69 ± 11", "unit": "%"},
      {"measurement": "percent injected dose in the urine at 180 min (3 h)", "setting": "[7]; 180 min after injection", "result": "91 ± 6", "unit": "%"},
      {"measurement": "mean plasma clearance", "setting": "[4]; earlier study of healthy volunteers", "result": 530, "unit": "mL/min"},
      {"measurement": "Left cortical TTP", "setting": "[8]; [11]", "result": "2.46 ± 0.73", "unit": "min"},
      {"measurement": "Left cortical TTP (min)", "setting": "[8]; [11]", "result": "2.46 (0.73) min"},
      {"measurement": "Right cortical TTP", "setting": "[8]; [12]", "result": "1.98 ± 0.60", "unit": "min"},
      {"measurement": "Right cortical TTP (min)", "setting": "[8]; [12]", "result": "1.98 (0.6) min"},
      {"measurement": "cortical 20 min/max", "setting": "[8]; healthy volunteers, kidney side not specified", "result": 0.10},
      {"measurement": "Left kidney 20 min/max", "setting": "[8]; whole-kidney region of interest, 20 min-to-maximum count ratio, n = 9, mean (SD)", "result": "0.11 (0.03)"},
      {"measurement": "Right kidney TTP (min)", "setting": "[8]; whole-kidney region of interest, n = 9, mean (SD)", "result": "2.8 (1.6) min"},
      {"measurement": "Left kidney Uptake %", "setting": "[8]; [13]", "result": "49.0 ± 4.1% and 49.0 (4.1) %"},
      {"measurement": "Right kidney Uptake %", "setting": "[8]; [13]", "result": "51.0 (4.1) %"},
      {"measurement": "Left kidney TTP (min)", "setting": "[8]; whole-kidney region of interest, time to peak of renogram, n = 9, mean (SD)", "result": "2.6 (0.6) min"},
      {"measurement": "red cell uptake", "setting": "[9]", "result": "17 ± 5", "unit": "%"},
      {"measurement": "plasma protein binding", "setting": "[10]", "result": "75 ± 3", "unit": "%"}
    ]}
  ]
}
